Assays:
Assay in all cases: relative viability (nuclei count vs DMSO), 5 days (fraction); higher = more cells survive
[1] = compound: C=CCn1c(=O)c2cnc(Nc3ccc(N4CCN(C)CC4)cc3)nc2n1-c1cccc(C(C)(C)O)n1 [Adavosertib] + CC(=O)c1c(C)c2cnc(Nc3ccc(N4CCNCC4)cn3)nc2n(C2CCCC2)c1=O [Palbociclib] (partner 0.5 µM)
How it was run: (§1)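 Dosing by pin tool came one day after lung cancer cell lines were seeded in 1536-well plates, using either one drug or a fixed anchor-drug dose plus five library-drug doses (not always all listed) in √10 steps. After 5 days, nuclei were counted on 4× images. Relative viability is treated-well nuclei count divided by vehicle-well nuclei count, and values are medians of duplicate plates.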

Nelarabine + Decitabine = compound: COc1nc(N)nc2c1ncn2[C@@H]1O[C@H](CO)[C@@H](O)[C@@H]1O [Nelarabine] + Nc1ncn([C@H]2C[C@H](O)[C@@H](CO)O2)c(=O)n1 [Decitabine] (partner 2 µM)
How it was run: as §1

Adavosertib + AZD7762 = compound: C=CCn1c(=O)c2cnc(Nc3ccc(N4CCN(C)CC4)cc3)nc2n1-c1cccc(C(C)(C)O)n1 [Adavosertib] + NC(=O)Nc1cc(-c2cccc(F)c2)sc1C(=O)N[C@H]1CCCNC1 [AZD7762] (partner 0.2 µM)
How it was run: as §1

Nelarabine + Crizotinib = compound: COc1nc(N)nc2c1ncn2[C@@H]1O[C@H](CO)[C@@H](O)[C@@H]1O [Nelarabine] + C[C@@H](Oc1cc(-c2cnn(C3CCNCC3)c2)cnc1N)c1c(Cl)ccc(F)c1Cl [Crizotinib] (partner 1 µM)
How it was run: as §1

Cell Line	relative viability ([1]; first compound 0.01 µM)	relative viability ([1]; first compound 0.03162 µM)	relative viability ([1]; first compound 0.1 µM)	relative viability ([1]; first compound 0.3162 µM)	relative viability (Nelarabine + Decitabine; first compound 0.01 µM)	relative viability (Nelarabine + Decitabine; first compound 0.03162 µM)	relative viability (Nelarabine + Decitabine; first compound 0.1 µM)	relative viability (Nelarabine + Decitabine; first compound 0.3162 µM)	relative viability (Nelarabine + Decitabine; first compound 1 µM)	relative viability (Adavosertib + AZD7762; first compound 0.01 µM)	relative viability (Adavosertib + AZD7762; first compound 0.03162 µM)	relative viability (Adavosertib + AZD7762; first compound 0.1 µM)	relative viability (Adavosertib + AZD7762; first compound 0.3162 µM)	relative viability (Nelarabine + Crizotinib; first compound 0.01 µM)	relative viability (Nelarabine + Crizotinib; first compound 0.03162 µM)	relative viability (Nelarabine + Crizotinib; first compound 0.1 µM)	relative viability (Nelarabine + Crizotinib; first compound 0.3162 µM)	relative viability (Nelarabine + Crizotinib; first compound 1 µM)
LOU-NH91	0.609	0.497	0.548	0.531	0.896	0.755	0.766	0.802	0.809	0.776	0.723	0.645	0.531	0.755	1	0.73	0.739	0.733
SW 900	0.403	0.633	0.567	0.538	0.415	0.399	0.398	0.39	0.41	0.559	0.422	0.281	0.175					
201T	0.336	0.356	0.364	0.367	0.869	0.871	0.837	0.896	0.829	0.615	0.537	0.471	0.267	1.04	0.968	0.84	1.06	1.02
NCI-H1793	0.293	0.293	0.298	0.275	0.291		0.535	0.595	0.513	0.407	0.2	0.14	0.179					
LXF-289	0.576	0.619	0.656	0.735	0.43	0.414	0.379	0.39	0.37	1.08	0.984	0.683	0.231	0.893	0.779	0.804	0.896	0.781
ChaGo-K-1	0.884	0.949	1.01	0.885	0.559	0.532	0.52	0.539	0.539	0.918	0.836	0.732	0.29	1.11	1.01	1.32	1.23	1.17
NCI-H23	0.503	0.53	0.419	0.219	0.249	0.272	0.299	0.348	0.303	0.227	0.143	0.118	0.142	0.505	0.485	0.297	0.495	0.515
SK-MES-1	0.343	0.337	0.305	0.25	0.359	0.347	0.375	0.422	0.35					1.07	0.922	0.961	1.05	1.1
Calu-6														0.848	0.613	0.879	0.825	0.826
COR-L 105	0.374	0.419	0.415	0.444	0.691	0.723	0.644	0.66	0.719					0.998	0.752	0.678	0.894	0.844
NCI-H1648	0.311	0.29	0.219	0.244		0.533		0.616	0.441	0.549	0.532	0.533	0.414					
NCI-H596					1.09	0.972	1.06	1.09	1.13	1.04	1.05	0.844	0.751	0.948	1.15	0.96	1.04	1.12
NCI-H2009	0.195	0.2	0.258	0.215	0.412	0.331	0.398	0.447	0.385					1.12	0.99	0.971	1.08	1.05
NCI-H2228		0.746	0.62	0.545										0.414	0.371		0.351	0.436
NCI-H1395	0.616	0.657	0.591	0.674	0.678	0.65	0.723	0.7	0.704	0.377	0.354	0.345	0.316					
NCI-H520	0.22	0.214	0.229	0.246	0.566	0.44	0.512	0.617	0.485					0.607	0.519	0.871	1.07	0.851
CAL-12T	0.403	0.492	0.425	0.262						0.569	0.41	0.427	0.232	0.517	0.514	0.61	0.806	0.549
EBC-1														0.157	0.178	0.182	0.235	0.194
A549					0.293	0.282	0.271	0.287	0.23					0.735	0.666	0.742	0.803	0.671
NCI-H2342	0.5	0.526	0.509	0.566	0.758	0.759	0.703	0.775	0.734	0.524	0.508	0.48	0.43					
SK-LU-1	0.405	0.467	0.398	0.342	0.815	0.574	0.638	0.822	0.597					1.27	0.518	1.04	1.01	0.994
NCI-H1650	0.295	0.34	0.289	0.293	0.392	0.447	0.484	0.478	0.333					1.07	0.809	0.999	0.981	0.847
NCI-H1299														1.04	1.03	0.963	0.979	0.966
NCI-H2023	0.412	0.377	0.331	0.202	0.239	0.207	0.241	0.223	0.219					0.831	0.672	0.59	0.578	0.605
NCI-H522	1.02	1.1	1.21	1.06	0.724	0.763	0.608	0.684	0.558	0.654	0.733	0.782	0.882					
